Biological target: T1, Itpkb (inositol trisphosphate 3' kinase B) (Mus musculus, UniProt B2RXC2)
T1 sequence (B2RXC2 1-942): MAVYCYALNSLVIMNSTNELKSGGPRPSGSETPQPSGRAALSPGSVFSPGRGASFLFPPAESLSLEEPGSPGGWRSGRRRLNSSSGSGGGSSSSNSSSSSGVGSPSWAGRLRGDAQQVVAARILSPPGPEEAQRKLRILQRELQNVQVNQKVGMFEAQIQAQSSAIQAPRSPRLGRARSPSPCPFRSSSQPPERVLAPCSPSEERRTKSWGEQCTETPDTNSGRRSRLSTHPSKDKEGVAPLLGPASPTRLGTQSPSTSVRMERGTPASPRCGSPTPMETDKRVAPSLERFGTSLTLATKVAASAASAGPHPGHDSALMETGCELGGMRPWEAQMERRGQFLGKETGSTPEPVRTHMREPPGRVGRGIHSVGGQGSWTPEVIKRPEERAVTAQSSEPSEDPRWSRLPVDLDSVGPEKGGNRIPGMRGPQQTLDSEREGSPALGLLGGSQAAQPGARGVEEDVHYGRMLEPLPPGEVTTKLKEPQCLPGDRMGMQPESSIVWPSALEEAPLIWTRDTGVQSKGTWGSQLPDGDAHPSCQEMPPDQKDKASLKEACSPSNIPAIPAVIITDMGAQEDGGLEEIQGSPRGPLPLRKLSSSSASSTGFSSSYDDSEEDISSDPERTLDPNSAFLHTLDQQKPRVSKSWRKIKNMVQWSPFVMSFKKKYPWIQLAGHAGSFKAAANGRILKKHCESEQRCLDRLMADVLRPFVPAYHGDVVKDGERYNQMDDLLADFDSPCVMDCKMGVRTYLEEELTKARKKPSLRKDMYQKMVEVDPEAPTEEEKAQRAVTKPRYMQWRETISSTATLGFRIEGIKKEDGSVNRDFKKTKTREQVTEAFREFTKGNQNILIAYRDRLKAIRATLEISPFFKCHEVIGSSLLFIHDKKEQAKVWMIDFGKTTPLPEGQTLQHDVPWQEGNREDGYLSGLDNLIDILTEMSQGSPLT
Test: Kinase-Glo assay with purified Itpkb ([…] Itpkb, […] ATP, […] IP3)
Type: biochemical

GNF362
IC50: 9 nM

— paper PMC4488288, “Inhibition of the Inositol Kinase Itpkb Augments Calcium Signaling in Lymphocytes and Reveals a Novel Strategy to Treat Autoimmune Disease” (PLoS ONE, 2015)
